# According to US20240384268A1, “Oligonucleotides” (Hudson Institute of Medical Research, priority 2021, published 2024):
# In the oligonucleotide strings, read from the 5' end, every base follows the letter of its sugar. An asterisk marks phosphorothioate; unmarked linkages are phosphodiester. Other units and linkages are bracketed, terminal groups are in braces. A string of capitals states the bases alone. d = 2'-deoxy (DNA); m = 2'-O-methyl
# Target: T1, TLR3 (Homo sapiens, UniProt O15455)
# T1 sequence (O15455 24-904): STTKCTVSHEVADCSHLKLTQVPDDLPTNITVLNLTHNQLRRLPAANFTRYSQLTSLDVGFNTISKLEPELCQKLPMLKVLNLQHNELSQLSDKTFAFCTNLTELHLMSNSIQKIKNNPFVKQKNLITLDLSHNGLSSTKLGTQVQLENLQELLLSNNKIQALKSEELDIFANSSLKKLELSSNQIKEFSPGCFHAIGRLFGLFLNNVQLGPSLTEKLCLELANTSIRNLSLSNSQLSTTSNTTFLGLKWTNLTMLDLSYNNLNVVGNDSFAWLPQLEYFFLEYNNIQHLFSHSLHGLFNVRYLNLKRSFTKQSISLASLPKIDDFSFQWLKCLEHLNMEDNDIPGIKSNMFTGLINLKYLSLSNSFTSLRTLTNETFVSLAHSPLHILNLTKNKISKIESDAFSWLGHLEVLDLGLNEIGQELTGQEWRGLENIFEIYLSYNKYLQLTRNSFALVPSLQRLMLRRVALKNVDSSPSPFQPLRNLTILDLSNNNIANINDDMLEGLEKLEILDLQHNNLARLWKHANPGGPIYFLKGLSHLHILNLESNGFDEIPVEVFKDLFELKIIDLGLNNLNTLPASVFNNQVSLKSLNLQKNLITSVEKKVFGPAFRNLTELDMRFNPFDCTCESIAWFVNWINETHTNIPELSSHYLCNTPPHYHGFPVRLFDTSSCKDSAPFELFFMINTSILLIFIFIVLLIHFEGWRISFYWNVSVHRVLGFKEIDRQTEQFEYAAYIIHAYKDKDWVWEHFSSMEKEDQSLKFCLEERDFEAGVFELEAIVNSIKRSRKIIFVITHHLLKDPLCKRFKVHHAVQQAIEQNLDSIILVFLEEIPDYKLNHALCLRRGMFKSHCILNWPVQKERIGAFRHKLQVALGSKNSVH
# Test: HEK-TLR3 NF-κB-luciferase reporter, poly(I:C) stimulation
# Type: cell-based
# Set-up: host or cells: HEK-Blue hTLR3 (HEK293)
# Conditions: 3-mers DNA PS 45 min, then 500 ng/ml polyI:C overnight, NF-κB-luciferase normalised to polyI:C only (Ligand 1.000, NT 0.000)
row,Substance,TLR3 2uM
1,"dA*dG*dC (DNA AGC; listed as DNA, chemistry not fully specified)",0.854
2,dG*dC*dC [GCC],0.895
3,"dC*dA*dA (CAA; listed as DNA, chemistry not fully specified)",0.909
4,"dA*dC*dA (DNA ACA; listed as RNA, chemistry not fully specified)",0.832
5,dG*dC*dG [GCG],0.867
6,"dC*dC*dG (CCG; listed as DNA, chemistry not fully specified)",0.867
7,"dA*dA*dG (DNA AAG; listed as DNA, chemistry not fully specified)",0.825
8,"dA*dG*dA (DNA AGA; listed as DNA, chemistry not fully specified)",0.849
9,"dC*dC*dA (CCA; listed as DNA, chemistry not fully specified)",0.763
10,"dA*dA*dA (DNA AAA; listed as DNA, chemistry not fully specified)",1.065

# Same assay, conditions: 3mer 2'OMe ASO at 2 uM, value relative to Ligand only = 1.000, NT = 0.000
row,Substance,TLR3 2uM
1,"mUmCmA (mU*mC*mA) [UCA, 3-mer 2′OMe PS oligo]",0.765
2,"dA*dG*dC (DNA AGC; listed as DNA, chemistry not fully specified)",1.019
3,UAG (mU*mA*mG),0.940
4,AAU (antisense mA*mA*mU),0.888
5,dG*dC*dC [GCC],0.884
6,"mGmUmC (mG*mU*mC) [GUC, 3-mer 2′OMe PS oligo]",0.752
7,ACU (antisense mA*mC*mU),1.062
8,"mGmAmU (mG*mA*mU) [GAU, 3-mer 2′OMe PS oligo]",0.771
9,CUC (mC*mU*mC),0.874
10,GGU (mG*mG*mU),0.829
11,"dC*dA*dA (CAA; listed as DNA, chemistry not fully specified)",0.771
12,"dA*dC*dA (DNA ACA; listed as RNA, chemistry not fully specified)",1.053
13,"UUG (listed as RNA, chemistry not fully specified)",1.030
14,UUU (mU*mU*mU),0.970
15,dG*dC*dG [GCG],0.830
16,UUC (mU*mU*mC),1.023
17,"dC*dC*dG (CCG; listed as DNA, chemistry not fully specified)",0.770
18,"mGmUmU (mG*mU*mU) [GUU, 3-mer 2′OMe PS oligo]",0.825
19,UCC (mU*mC*mC),0.761
20,"mGmUmA (GUA; all 2'-O-methyl, backbone not given here; further chemistry not fully specified) [shortMut1-3b]",0.839
21,CUG (mC*mU*mG),0.870
22,CAU (mC*mA*mU),0.866
23,"mGmUmG (mG*mU*mG) [GUG, 3-mer 2′OMe PS oligo]",0.786
24,"dA*dA*dG (DNA AAG; listed as DNA, chemistry not fully specified)",0.616
25,"dA*dG*dA (DNA AGA; listed as DNA, chemistry not fully specified)",0.829
26,"mAmUmC (mA*mU*mC) [AUC, 3-mer 2′OMe PS oligo]",0.768
27,"dC*dC*dA (CCA; listed as DNA, chemistry not fully specified)",0.917
28,CUA (mC*mU*mA),0.851
29,AUA (antisense mA*mU*mA),0.570
30,"dA*dA*dA (DNA AAA; listed as DNA, chemistry not fully specified)",1.026

# Target: cGAS (Homo sapiens, UniProt Q8N884)
# Sequence (Q8N884 whole entry): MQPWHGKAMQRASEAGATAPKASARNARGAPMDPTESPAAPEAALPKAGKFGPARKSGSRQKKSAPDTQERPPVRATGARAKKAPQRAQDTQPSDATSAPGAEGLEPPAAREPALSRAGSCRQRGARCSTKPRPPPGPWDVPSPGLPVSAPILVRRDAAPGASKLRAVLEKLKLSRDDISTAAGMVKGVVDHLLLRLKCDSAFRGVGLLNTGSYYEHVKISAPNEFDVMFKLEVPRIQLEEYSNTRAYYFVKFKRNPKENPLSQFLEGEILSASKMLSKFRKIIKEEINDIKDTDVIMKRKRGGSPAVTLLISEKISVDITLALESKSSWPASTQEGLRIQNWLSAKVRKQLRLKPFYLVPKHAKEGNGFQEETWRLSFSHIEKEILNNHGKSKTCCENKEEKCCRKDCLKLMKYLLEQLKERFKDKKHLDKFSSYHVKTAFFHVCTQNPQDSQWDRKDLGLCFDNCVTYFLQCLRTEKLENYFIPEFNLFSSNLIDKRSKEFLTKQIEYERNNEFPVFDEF
# Test: ISD70-driven IP-10 (and IFN-β) production in THP-1 cells, ELISA
# Type: cell-based
# Set-up: endogenous in cells; host or cells: THP-1 (undifferentiated)
# Conditions: ASO 100 nM; relative to ISD70 only, given as fraction
row,Substance,cGAS 100 nM (averaged IP-10 level relative to ISD70 condition)
1,"CCAAGATCAGCAGTCT (antisense; LNA-modified, pattern not given here) [CTNN2B-2341 LNA KL]",0.356
2,"TTTTGGCTGGGATCAA (antisense; LNA-modified, pattern not given here) [CAMSAP1-4697 LNA KL]",0.590
3,"GCATCCACCACGTCGT (antisense; LNA-modified, pattern not given here) [EGFR-3267 LNA V1]",0.602
4,"TGCACACTTCGTACCC (antisense; LNA-modified, pattern not given here) [CAMSAP1-4916 LNA V1]",0.572
5,"CAACACTTCGTGGGGT (antisense; LNA-modified, pattern not given here) [HPRT LNA-667 V1]",0.675
6,"GTGTCTGGAAGCTTCC (antisense; LNA-modified, pattern not given here) [CTNN2B-809 LNA V1]",0.482
7,"GTATCGAAAGAGTCTG (antisense; LNA-modified, pattern not given here) [EGFR-3908 LNA KL]",0.609
8,"TGGCCTCCCATCTCCT (antisense; LNA-modified, pattern not given here) [HPRT LNA-329 V1]",0.494
9,"GGTTACGGCTCAGTAT (antisense; LNA-modified, pattern not given here) [CAMSAP1-4295 LNA KL]",0.661
10,"GCCATGCTGGCTCGGA (antisense; LNA-modified, pattern not given here) [CAMSAP1-2584 LNA V1]",0.599
11,"ACACTTCGTGGGGTCC (antisense; LNA-modified, pattern not given here) [HPRT LNA-665 V1]",0.516
12,"GTTCAGTCCTGTCCAT (antisense; LNA-modified, pattern not given here) [HPRT LNA-292 V1]",0.563
13,"CCATCCATGAGGTCCT (antisense; LNA-modified, pattern not given here) [CTNN2B-2545 LNA V1]",0.533
14,"GCCATCCACTTGATAG (antisense; LNA-modified, pattern not given here) [EGFR-2874 LNA V1]",0.688
15,"GTCCCCTGTTGACTGG (antisense; LNA-modified, pattern not given here) [HPRT LNA-489 KL]",0.606
16,"GCCATGTTTCTTCTTG (antisense; LNA-modified, pattern not given here) [MB21D1-1248 LNA KL]",0.639
17,"TTCGTGGGGTCCTTTT (antisense; LNA-modified, pattern not given here) [HPRT LNA-661 V1]",0.520
18,"GCAGGCTCAGTGATGT (antisense; LNA-modified, pattern not given here) [CTNN2B-1642 LNA V1]",0.458
19,"TGATGGCCTCCCATCT (antisense; LNA-modified, pattern not given here) [HPRT LNA-332 V1]",0.650
20,"TCGTAGTTGCTTCCTA (antisense; LNA-modified, pattern not given here) [MB21D1-1181 LNA KL]",0.610
21,"TCCAACACTTCGTGGG (antisense; LNA-modified, pattern not given here) [HPRT LNA-669 V1]",0.539
22,"TGTGATGGCCTCCCAT (antisense; LNA-modified, pattern not given here) [HPRT LNA-334 V1]",0.557
23,"GTCTTGGCTTCGTGGA (antisense; LNA-modified, pattern not given here) [MB21D1-522 LNA V1]",0.620
24,"GGCTGGAATCCGAGTT (antisense; LNA-modified, pattern not given here) [EGFR-4705 LNA KL]",0.592
25,"GATAGCACCTTCAGCA (antisense; LNA-modified, pattern not given here) [CTNN2B-1294 LNA KL]",0.436

# Same assay, conditions: THP-1; 300 nM LNA or 200 nM MOE ASO ~30 min; ISD70 overnight (FIG. 21, 23)
row,Substance,"inhibition of cGAS in THP-1, LNA and MOE ASO validation (in words)"
1,"GTGTCTGGAAGCTTCC (antisense; LNA-modified, pattern not given here) [CTNN2B-809 LNA V1]",potently inhibited signalling

# Same assay, conditions: THP-1; 2′OMe or PS oligos, 100-250 nM, pre-treatment as in figure legends; ISD70 2.5 μg/ml
row,Substance,inhibition of ISD70-driven IP-10 production (in words)
1,"mC*mG*mU*T*T*C*C*C*C*C*C*C*C*C*C*C*C*C*C*C (CGUTTCCCCCCCCCCCCCCC; antisense; sugars from the 5' end m3 d17, all phosphorothioate, methylation of C not given here) [[C2]Mut1-v3-dC]",lacked significant inhibitory activity
2,"mG*mG*mU*A*T*C*C*C*C*C*C*C*C*C*C*C*C*C*C*C (GGUATCCCCCCCCCCCCCCC; antisense; sugars from the 5' end m3 d17, all phosphorothioate, methylation of C not given here) [[C2]Mut1-dC]",significantly more inhibitory than its precursor dC20
